In publication PMC5094990, “Novel 1, 3-N, O-Spiroheterocyclic compounds inhibit heparanase activity and enhance nedaplatin-induced cytotoxicity in cervical cancer cells” (Oncotarget, 2016):
Where two headings read alike, the source gives them in different places. Each block holds one molecule with its values, some of them ahead of it.

Columns and labels:
human recombinant HPA = molecular target: T1, human recombinant HPA (Homo sapiens, UniProt Q9Y251); assay: Detection of HPA activity inhibition (Heparan Degrading Enzyme Assay Kit); format: biochemical; settings: 31 mIU human recombinant HPA, 37°C, 45 minutes; read-out: IC50, inhibitory effect on heparanase activity
T1 sequence (Q9Y251 158-543 limits assumed): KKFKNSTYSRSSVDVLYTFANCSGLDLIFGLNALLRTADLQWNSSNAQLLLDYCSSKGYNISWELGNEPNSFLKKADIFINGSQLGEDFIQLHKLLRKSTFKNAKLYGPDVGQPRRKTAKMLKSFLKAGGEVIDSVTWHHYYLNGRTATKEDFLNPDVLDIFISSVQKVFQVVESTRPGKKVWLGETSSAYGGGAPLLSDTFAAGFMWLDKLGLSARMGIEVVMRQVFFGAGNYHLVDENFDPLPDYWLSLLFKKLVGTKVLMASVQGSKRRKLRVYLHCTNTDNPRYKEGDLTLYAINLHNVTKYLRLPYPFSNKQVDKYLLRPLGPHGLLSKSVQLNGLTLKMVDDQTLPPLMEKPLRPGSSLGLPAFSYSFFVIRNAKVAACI
T1 sequence (Q9Y251 36-109 limits assumed): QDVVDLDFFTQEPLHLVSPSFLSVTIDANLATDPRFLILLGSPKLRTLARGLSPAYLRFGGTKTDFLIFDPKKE
Procedure: The final reaction volume of each vial was 100 μl. […] Then, 100 μl of terminating liquid was added into each well. OD values were examined at a wavelength of 450 nm. Each concentration was tested in three separate wells. GraphPad Prism 5 (GraphPad Prism Software Inc., San Diego) was used to calculate the inhibitory IC50 values.

HeLa cells [1] = assay: MTT assay, growth inhibition of HeLa cells; format: cell-based, human; settings: for inhibition at 1 µM / inhibition at 5 µM / inhibition at 15 µM / inhibition at 30 µM / inhibition at 60 µM / inhibition at 120 µM / inhibition at 180 µM / inhibition at 240 µM / IC50: Homo sapiens, HeLa; for inhibition at 1 µM / inhibition at 5 µM / inhibition at 15 µM / inhibition at 30 µM / inhibition at 60 µM / inhibition at 120 µM / inhibition at 180 µM / inhibition at 240 µM: read-out: Growth inhibition rate in HeLa cells
Procedure: (§1) Cells were cultured in improved medium supplemented with 10% FBS and kept at 37°C in a […] humidified atmosphere containing 5% CO2. Logarithmic phase cells were used for the experiment and were treated with different concentrations of different medications for different amounts of time. […] Inhibitors were made into 10 mM stock solutions with DMSO, filtered, and kept at room temperature away from light. These inhibitor stock solutions were diluted to the required concentration (1, 5, 15, 30, 60, 120, 180, or 240 μM) before every experiment. The final doses of nedaplatin were […]. In order to determine whether an HPA inhibitor sensitized cells to nedaplatin, 10 μM of inhibitor number 16 (No. 16) was added into each experimental well with nedaplatin.
200 μl of single-cell suspension at a density of 5 × 10^4 cells/ml was seeded into 96-well plates. When cells were adherent, the medium was replaced with 200 μl of medium containing different concentrations of inhibitor or nedaplatin, and the cells were further incubated for 24 hours to 96 hours respectively. 20 μl MTT solution ([…] in phosphate buffered saline (PBS)) was added to each well 4 hours before the treatment ended. The cells were then incubated for another 4 hours, after which the supernatants were removed. The cells were totally solubilized in 150 μl DMSO. OD values were measured at the wavelength of 492 nm with a reference wavelength of 630 nm. Inhibition rate (IR) in the cells was calculated as follows: IR = ((OD2-OD0)-(OD1-OD0))/(OD2-OD0) × 100%, where OD0 was the OD value of blank wells, OD2 was the value of normal control wells, and OD1 was the value of experimental wells. Each condition was replicated in six separate wells.

Siha cells [2] = assay: MTT assay, growth inhibition of Siha cells; format: cell-based, human
Procedure: as §1
(§2) 200 μl of single-cell suspension at a density of 5 × 10^4 cells/ml was seeded into 96-well plates. […] OD values were measured at the wavelength of 492 nm with a reference wavelength of 630 nm. Inhibition rate (IR) in the cells was calculated as follows: IR = ((OD2-OD0)-(OD1-OD0))/(OD2-OD0) × 100%, where OD0 was the OD value of blank wells, OD2 was the value of normal control wells, and OD1 was the value of experimental wells. […]

HaCaT cells = assay: Cell wound healing assay (migration), HaCaT cells; format: cell-based, human; settings: 50 μM, 24 hours, compared to control
Procedure: (§3) Straight lines 0.5 cm apart from each other were marked on the bottoms of culture dishes opposite the label lines. Logarithmic phase cells were seeded into 35 mm culture dishes. Nicks were made 0.5 cm apart on the bottom of the dish along the labeled lines with a 200 μl sterile pipette tip after cells were close to saturated. Dishes were then washed with sterile PBS three times, 2% FBS medium containing 0 or 50 μM of No. 16 inhibitor was added, and dishes were incubated for 24 hours. The scratch width was photographed under phase contrast on an inverted microscope with a digital camera (100× magnification). The experiment was repeated three times.

HPA = HPA expression in HeLa and Siha cells (immunocytochemical staining, western blot, real time PCR); format: cell-based, human; settings: 50 μM, 24 hours, stronger after 48 hours
Description: The experiment was repeated three times.
The experiment was repeated twice.

c-Myc = c-Myc expression in HeLa and Siha cells (western blot and PCR); format: cell-based, human; settings: both HeLa and Siha cells, 50 μM, 48 hours
Procedure: (§4) Cells were washed with precooled PBS after being treated with inhibitor for 48 hours, and cell lysis solution was added to extract protein. The sample concentration was measured by the bicinchoninic acid method. 30 μg of protein was separated by 10% polyacrylamide gel electrophoresis (PAGE) and transferred to polyvinylidene difluoride membranes. After blocking in non-fat milk solution at room temperature, the membranes were incubated with diluted primary antibodies against either proteins of interest or β-actin overnight at 4°C. After consecutive washes, the membranes were incubated with secondary antibody (diluted 1:5000) at room temperature for 1 h. Then, the membranes were developed with enhanced chemiluminescence and imaged with ImageQuant LAS4000 (GE Healthcare Life Sciences, Pittsburgh, PA). The grey values of protein bands were analyzed using Image J (National Institutes of Health, USA). The relative levels of proteins of interest were calculated in comparison to the internal reference β-actin. The experiment was repeated three times.
(§5) Levels of HPA, p53, c-Myc, and hTERT mRNA were analyzed by real-time PCR. mRNA was extracted from cells and separated and purified with Trizol. The total RNA concentration was measured with an ultraviolet spectrophotometer. The quality of total RNA was assessed using 1.5% agarose gel electrophoresis. […]

p53 = p53 expression in HeLa and Siha cells (western blot and PCR); format: cell-based, human; settings: both HeLa and Siha cells, 50 μM, 48 hours
Procedure: as §4, §5

HeLa cells [3] = assay: Cell wound healing assay (migration), HeLa cells; format: cell-based, human; settings: 50 μM, 24 hours, compared to control
Procedure: as §3

h-TERT = h-TERT expression in HeLa and Siha cells (western blot and PCR); format: cell-based, human; settings: both HeLa and Siha cells, 50 μM, 48 hours
Procedure: as §4, §5

[4] = system: HaCaT human normal keratinocytes; assay: MTT assay, growth inhibition of HaCaT cells; format: cell-based; settings: time not given
Procedure: as §1, §2

Siha cells [5] = assay: Cell wound healing assay (migration), Siha cells; format: cell-based, human; settings: 50 μM, 24 hours, compared to control
Procedure: as §3

[6] = 48 hours, MTT, read-out: IC50, growth inhibition of HeLa cells

melting point: 105.4 to 106.7 °C | IC50 (human recombinant HPA): 14.1 µM | IC50 (HeLa cells [1]; [6]): 77.6 µM
SMILES: COc1ccc(C2CNC(c3ccc(C)cc3)OC23CCCCC3)cc1 (centres unmarked) [No. 20]
inhibition at 1 µM (HeLa cells [1]; 1 μM, 48 hs, mean ± s): 5.01 ± 0.247% | inhibition at 5 µM (HeLa cells [1]; 5 μM, 48 hs, mean ± s): 5.02 ± 0.0834% | inhibition at 15 µM (HeLa cells [1]; 15 μM, 48 hs, mean ± s): 13.3 ± 0.32% | inhibition at 30 µM (HeLa cells [1]; 30 μM, 48 hs, mean ± s): 19.4 ± 1.34% | inhibition at 60 µM (HeLa cells [1]; 60 μM, 48 hs, mean ± s): 38.49 ± 0.255% | inhibition at 120 µM (HeLa cells [1]; 120 μM, 48 hs, mean ± s): 66.3 ± 1.14% | inhibition at 180 µM (HeLa cells [1]; 180 μM, 48 hs, mean ± s): 90.5 ± 1.12% | inhibition at 240 µM (HeLa cells [1]; 240 μM, 48 hs, mean ± s): 95.44 ± 0.525%

melting point: 128.7 to 129.6 °C | IC50 (HeLa cells [1]; [6]): 75.2 µM
SMILES: COc1ccc(C2CNC(c3ccc(F)cc3F)OC23CCCCC3)cc1 (centres unmarked) [No. 22]
inhibition at 1 µM (HeLa cells [1]; 1 μM, 48 hs, mean ± s): -3.13 ± 0.705% | inhibition at 5 µM (HeLa cells [1]; 5 μM, 48 hs, mean ± s): -0.339 ± 0.0726% | inhibition at 15 µM (HeLa cells [1]; 15 μM, 48 hs, mean ± s): 4.27 ± 0.729% | inhibition at 30 µM (HeLa cells [1]; 30 μM, 48 hs, mean ± s): 22.1 ± 0.976% | inhibition at 60 µM (HeLa cells [1]; 60 μM, 48 hs, mean ± s): 36.13 ± 0.285% | inhibition at 120 µM (HeLa cells [1]; 120 μM, 48 hs, mean ± s): 66 ± 0.898% | inhibition at 180 µM (HeLa cells [1]; 180 μM, 48 hs, mean ± s): 93.9 ± 1.67% | inhibition at 240 µM (HeLa cells [1]; 240 μM, 48 hs, mean ± s): 95.18 ± 0.39%

More lines, now with the values behind:

SMILES: COc1ccc(C2CNC(c3ccc([N+](=O)[O-])cc3)OC23CCCCC3)cc1 (centres unmarked) [No. 15]
melting point: 111.3 to 112.5 °C | IC50 (human recombinant HPA): 28.8 µM | inhibition at 1 µM (HeLa cells [1]; 1 μM, 48 hs, mean ± s): 9.12 ± 0.166% | inhibition at 5 µM (HeLa cells [1]; 5 μM, 48 hs, mean ± s): 17 ± 0.732% | inhibition at 15 µM (HeLa cells [1]; 15 μM, 48 hs, mean ± s): 25.2 ± 0.947% | inhibition at 30 µM (HeLa cells [1]; 30 μM, 48 hs, mean ± s): 33.2 ± 2.34% | inhibition at 60 µM (HeLa cells [1]; 60 μM, 48 hs, mean ± s): 36.2 ± 0.592% | inhibition at 120 µM (HeLa cells [1]; 120 μM, 48 hs, mean ± s): 77.5 ± 3.82% | inhibition at 180 µM (HeLa cells [1]; 180 μM, 48 hs, mean ± s): 92.4 ± 3.08% | inhibition at 240 µM (HeLa cells [1]; 240 μM, 48 hs, mean ± s): 95.2 ± 3.11% | IC50 (HeLa cells [1]; [6]): 80 µM

SMILES: COc1ccc(C2CNC(c3ccccc3F)OC23CCCCC3)cc1 (centres unmarked) [No. 16]
IC50 (Siha cells [2]; Homo sapiens, SiHa, read-out: IC50, growth inhibition of Siha cells): 78.8 µM | melting point: 171.3 to 172.5 °C | Effect on cell migration (scratch width) (HaCaT cells): minimal | Effect on HPA levels (HPA): reduced HPA levels | Effect on c-Myc expression (c-Myc): decreased | Effect on p53 expression (p53): increased | Effect on cell migration (scratch width) (HeLa cells [3]): inhibited the migration | Effect on h-TERT expression (h-TERT): decreased | IC50 [4]: 1710 µM | IC50 (HeLa cells [1]; 48 h, read-out: IC50, growth inhibition of HeLa cells, 48 hours, MTT): 48.2 µM | inhibition at 1 µM (HeLa cells [1]): 7.41 ± 0.976% | inhibition at 5 µM (HeLa cells [1]): 11 ± 0.467% | inhibition at 15 µM (HeLa cells [1]): 20.2 ± 0.779% | inhibition at 30 µM (HeLa cells [1]): 36.5 ± 0.471% | inhibition at 60 µM (HeLa cells [1]): 59.3 ± 1.1% | inhibition at 120 µM (HeLa cells [1]): 87.6 ± 0.891% | inhibition at 180 µM (HeLa cells [1]): 92.89 ± 0.537% | inhibition at 240 µM (HeLa cells [1]): 92.98 ± 0.237% | Effect on cell migration (scratch width) (Siha cells [5]): inhibited the migration

SMILES: [NH2][Pt]1([NH2])[O]CC(=O)[O]1 [nedaplatin]
IC50, growth inhibition of Siha cells by nedaplatin alone (Siha cells [2]; 48 hours, nedaplatin alone): 11.204 µg/mL | IC50, growth inhibition of HeLa cells by nedaplatin alone (HeLa cells [1]; 48 hours, nedaplatin alone, listed as NDP): 2.878 µg/mL
